What was measured:
[1] = system: dogs; assay: Dosage required to raise mean arterial pressure (MAP) by 10%; type: in vivo; settings: experimentally determined
Method: Nasal airway pressure was measured using a Validyne pressure transducer (Validyne Engineering, Northridge, CA) with a 2.25 cm H2O range membrane connected to a multipen recorder (Grass Instruments, Quincy, MA). Air was passed through an in-line direct measure flow meter (Gilmont Instruments, Barrington, IL) connected to the nasal opening cannula. Pressure was measured in the line with a constant flow rate (150 ml/min) of air. Drugs were directly injected into the jugular vein using a 30 gauge needle. All injections were of a constant 0.1 ml volume. In the congestion challenged groups congestion was achieved by an intranasal administration of histamine (50 mM, 0.02 ml/nostril). The histamine was expelled after 2 minutes with a short nasal cannula airflow and subsequent enantiomeric drug doses were directly injected into the jugular vein. The dosage chosen for each drug was the amount needed to increase the mean arterial pressure (MAP) of the animal by 10%; this dosage served as the "100%" dose for the initial nasal airway studies. […] The dosage required for rats was calculated by proportionately adjusting the experimentally determined dog dosage to account for the lesser weight of the rats.

[2] = system: Sprague Dawley rats; assay: Nasal airway pressure / resistance in anesthetized rats, normal and histamine-challenged; type: in vivo; settings: 75% dose
[3] = system: Male Swiss-Webster mice; assay: H1 antihistamine (triprolidine) interaction study, locomotor activity; type: in vivo; settings: pretreatment with 0.01, 0.1, or 1.0 mg/kg triprolidine 20 minutes before
Method: H1 antihistamine interaction studies. […] The mice were then immediately placed in the activity-testing apparatus for a 2 hour session. […] Eight mice were tested for each triprolidine/sympathomimetic combination.
The dose-effect data were considered in 1-way analysis of variance, and planned individual comparisons were conducted between each dose and the saline control group.

[4] = system: Sprague Dawley rats; assay: Mean arterial blood pressure after 75% dose in rats; settings: compared with (+)-ephedrine
[5] = system: Male Swiss-Webster mice; assay: Locomotor activity: stimulant and depressant effects (horizontal distance); type: in vivo
[6] = system: α2-Receptor; type: binding, mongrel dogs

Compound	Dosage required to raise MAP by 10%, Dog [1]	interaction with triprolidine pretreatment (horizontal movement) [3]	also measured
CNC[C@H](O)c1cccc(O)c1 [(-)-phenylephrine]	10 µg/kg		
CN[C@H](C)[C@@H](O)c1ccccc1 [(+)-ephedrine]	200 µg/kg	no drug interaction is apparent	effect on normal airway decongestion [2]: the same efficacious effect on normal airway decongestion
CN[C@@H](C)[C@@H](O)c1ccccc1 [(+)-pseudoephedrine]	200 µg/kg	increased horizontal movement is observed	
CN[C@@H](C)[C@H](O)c1ccccc1 [(-)-ephedrine]	100 µg/kg	increased horizontal movement is observed	increase in blood pressure [4]: slightly greater (though significant) increase in blood pressure than (+)-ephedrine; effect on normal airway decongestion [2]: the same efficacious effect on normal airway decongestion
CC(N)Cc1ccccc1 (single isomer, unassigned; (+)) [(+)-amphetamine]			Locomotor stimulant effects, time course ([5]; 2-hour session after i.p. injection, result in words): dose- and time-dependent increase in the distance traversed
Cc1ccc(/C(=C\CN2CCCC2)c2ccccn2)cc1 [triprolidine]			effect on horizontal distance ([5]; mouse, in vivo): failed to affect horizontal distance; effect on locomotion ([5]; triprolidine alone, 50 and 100 mg/kg, beginning within 10 minutes, lasting 30 to 40 minutes): Dose-dependent depression of locomotion
CNC[C@H](O)c1ccc(O)c(O)c1 [Epinephrine]			displacement of bound p-iodoclonidine [6]: easily displaced all bound p-iodoclonidine
